# Columns and labels:
# [1] = test system: Neuromuscular Junction of Crayfish; assay: Glutamate blocking effect on neuromuscular junction of crayfish (intracellular recording of the L-glutamate-induced potential); assay type: cell-based; settings: for inhibition at 0.5 µM / inhibition at 20 µM: 5 min; for inhibition at 0.5 µM: as Table 1, but concentration of the pretreatment liquid reduced to 5 x 10⁻⁷ M; for glutamate response after washing: treated sample washed with circulating salt solution for 40 min, then glutamate response measured; for inhibition at 20 µM: inhibition ratio of glutamate potential induced by L-glutamate (1 x 10⁻⁴M), pretreated with test solution (2 x 10⁻⁵ M) for 5 min
# Description: (1) Evaluation of glutamate blocking effect was performed according to the methods of Ishida et al [J. Physiol., 298, 301-319(1980)], and Shinozaki et al[Comp. Biochem. Physiol, 70c, 49-58(1981)]. In more detail, the opener muscle of the first walking leg of the crayfish is employed for the examination described below. A neuromusculor sample is fixed in a vessel, and an aqueous salt solution for crayfish [composition: NaCℓ (195 mM), CaCℓ₂ (18mM), KCℓ (5.4 mM), Tris-maleate buffer (pH 7.5, 10 mM), and glucose (11 mM)] was circulated at a constant rate into the vessel. A glass microelectrode filled with 3M KCℓ solution was inserted into the middle portion of the muscle fibre and the change of potential induced by L-glutamate (1 x 10⁻⁴M) was measured intracellularly. The glutamate blocking effect of the compound to be tested was evaluated by determining an inhibition ratio of glutamate potential protreated by the test solution (2 x 10⁻⁵ M) for 5 min.
# (2) The glutamate blocking effects of the compound of the present invention as described in Synthesis Example 3 (i.e. 1-[3-[4-methyl-1-(3-methylbutyl)penty]amino]propyl]piperidine) and the known 5-methyl-1-phenyl-2-(3-piperidinopropylamino)hexan-1-ol were evaluated in the same manner as above except that the concentration of the liquid for the pretreatment was reduced from 2 x 10⁻⁵ M to 5 x 10⁻⁷ M. The results are set forth in Table 2.
# (§1) (3) The neuromuscular sample which was fixed in the vessel and treated in the above manner was subsequently washed with the salt solution flowing in the vessel under circulation for 40 min. After such washing was complete, the glutamate response was measured on the wahsed neuromuscular sample. […] Accordingly, it was confirmed that the glutamate blocking action of the aninoalcohol derivative was not kept for sufficient period of time. […] The prolongation of the effect of glutamate response shown in using this alkylenediamine compound was also observed on the alkylenediamine derivatives tested in the (1) above, (4) Acute toxicity (LD₅₀, i.v.) was measured on the alkylenediamine drivatives of the invention and the known aminoalcohol derivative.
# [2] = Acute toxicity (LD50, i.v.); settings: in vivo, iv, read-out: Acute Toxicity (LD₅₀)
# Description: as §1
# [3] = test system: opener muscle of the first walking leg of the crayfish; settings: dose of 2 x 10⁻⁴M; glutamic acid (1x10⁻⁴M); cited from earlier work
Molecule,inhibition at 20 µM [1],also measured
"CC(C)CCC(NCCCN1CCCCC1)C(O)c1ccccc1 (stereo not drawn) [5-Methyl-1-phenyl-2-(3-piperidinopropylamino)hexan-1-ol, reference compound]",,inhibition at 0.5 µM [1]: 6%; glutamate response after washing [1]: almost the same level as shown by the sample prior to the treatment; LD50 [2]: 13.6 mg/kg
COc1ccc([C@@H]2Sc3ccccc3N(CCN(C)C)C(=O)[C@@H]2OC(C)=O)cc1 [Diltiazem],,inhibition of depolarization induced by glutamic acid [3]: approx. 30%
"CC(C)CCC(CNCCCN1CCCCC1)c1ccccc1 (stereo not drawn) [Synthesis Example 1, 1-[3-(5-Methyl-2-phenylhexylamino)propyl]piperidine]",99%,
"CCCCCC(CCCCC)NCCCN1CCCCC1 [Synthesis Example 2, 1-[3-(1-Pentylhexylamino)propyl]piperidine]",80%,LD50 [2]: 23.3 mg/kg
"CC(C)CCC(CCC(C)C)NCCCN1CCCCC1 [Synthesis Example 3, 1-[3-[4-Methyl-1-(3-methylbutyl)pentylamino]propyl]-piperidine]",99%,inhibition at 0.5 µM [1]: 25%; glutamate response after washing [1]: almost no glutamate response; LD50 [2]: 29.5 mg/kg
"CC(C)CCC(Cc1ccccc1)NCCCN1CCCCC1 (stereo not drawn) [Synthesis Example 4, 1-[3-(1-Benzyl-4-methylpentylamino)propyl]piperidine]",99%,
CC(C)CCOC(CNCCCN1CCCCC1)c1ccccc1 (stereo not drawn) [Synthesis Example 7],96%,
"c1ccc(OC(CNCCCN2CCCCC2)c2ccccc2)cc1 (stereo not drawn) [Synthesis Example 8, 1-[3-(2-Phenoxy-2-phenylethylamino)propyl]piperidine]",94%,
"CC(C)CC(=O)OCC(Cc1ccccc1)NCCCN1CCCCC1 (stereo not drawn) [Synthesis Example 9, 3-Phenyl-2-(3-piperidinopropylamino)propyl 3-methylbutanoate]",90%,
"CC(C)CCC(CCc1ccccc1)NCCCN1CCCCC1 (stereo not drawn) [Synthesis Example 10, 1-[3-[4-Methyl-1-(2-phenylethyl)pentylamino]propyl]piperidine]",99%,
"CC(C)CCC(CCNCCCN1CCCCC1)Cc1ccccc1 (stereo not drawn) [Synthesis Example 11, 1-[3-(3-Benzyl-6-methylheptylamino)propyl]piperidine]",96%,
"CC(C)CCC(CNCCCN1CCCCC1)Cc1ccccc1 (stereo not drawn) [Synthesis Example 12, 1-[3-(2-Benzyl-5-methylhexylamino)propyl]piperidino]",98%,
"CC(C)CCC(CCCc1ccccc1)NCCCN1CCCCC1 (stereo not drawn) [Synthesis Example 13, 1-[3-[4-Methyl-1-(3-phenylpropyl)pentylamino]propyl]piperidine]",96%,
"CCC(CC)C(CCC(C)C)NCCCN1CCCCC1 (stereo not drawn) [Synthesis Example 15, 1-[3-[1-(1-Ethylpropyl)-4-methylpentylamino]propyl]piperidine]",94%,
"CCCCCC(CCC(C)C)NCCCN1CCCCC1 (stereo not drawn) [Synthesis Example 18, 1-[3-[1-(3-Methylbutyl)hexylamino]propyl]piperidine]",97%,
"CC(C)CCC(CCC(C)(C)C)NCCCN1CCCCC1 (stereo not drawn) [Synthesis Example 19, 1-[3-[4,4-Dimethyl-1-(3-methylbutyl]pentylamino]propyl]piperidine]",88%,
"CC(C)CCC(CCC(C)C)NCCCN1CCCC1 [Synthesis Example 20, 1-[3-[4-methyl-1-(3-methylbutyl)pentylamino]propyl]pyrrolidine]",96%,
"CC(C)CCN(CCCN1CCCCC1)CCC(C)C [Synthesis Example 26, 1-[3-[N,N-Bis-(3-methylbutyl)amino]propyl]piperidine]",91%,LD50 [2]: 24.8 mg/kg
"CC(C)CCN(CCCN1CCCCC1)CCOc1ccccc1 [Synthesis Example 28, 1-[3-[3-Methyl-N-(2-phenoxyethyl)butylamino]propyl]piperidine]",72%,
"CC(C)CCN(CCCN1CCCCC1)CCc1ccccc1 [Synthesis Example 29, 1-[3-[3-Methyl-N-(2-phenylethyl)butylamino]propyl]piperidine]",80%,
"CC(C)CCN(CCCc1ccccc1)CCCN1CCCCC1 [Synthesis Example 30, 1-[3-[3-Methyl-N-(3-phenylpropyl)butylamino]propyl]piperidine]",96%,
"CCCCCCN(CCCN1CCCCC1)CCC(C)C [Synthesis Example 33, 1-[3-[N-hexyl-N-(3-methylbutyl)amino]propyl]piperidine]",83%,
"CCCCCCCN(CCCN1CCCCC1)CCC(C)C [Synthesis Example 34, 1-[3-[N-heptyl-N-(3-methylbutyl)amino]propyl]piperidine]",91%,
"CC(C)CCCCN(CCCCN1CCCCC1)CCC(C)C [Synthesis Example 38, 1-[4-[N-(3-Methylbutyl)-N-(5-methylhexyl)amino]butyl]piperidine]",96%,
"CC(C)CCCCN(CCCN1CCCCCC1)CCC(C)C [Synthesis Example 41, 1-[3-[N-(3-Methylbutyl)-N-(5-methylhexyl)amino]propyl]perhydroazepin]",100%,
Caroberine,,inhibition of depolarization induced by glutamic acid [3]: approx. 30%
